Earlier results in patent publication US8754096B2, “Piperidinone carboxamide azaindane CGRP receptor antagonists” (Merck Sharp & Dohme Corp., priority 2010, dated 2014).

Tested on: migraine
Details: phase III clinical trials, orally bioavailable

## O=C(N[C@@H]1CC[C@@H](c2cccc(F)c2F)CN(CC(F)(F)F)C1=O)N1CCC(n2c(=O)[nH]c3ncccc32)CC1 [telcagepant]
  antimigraine effectiveness: shown antimigraine effectiveness
